Columns and labels:
Assay in all cases: radiometric filter-binding kinase assay
TAOK1 (human) = TAOK1 (human) (UniProt Q7L7X3)
AURKA (human) = AURKA (human) (UniProt O14965)
GCK (human) = GCK (human) (UniProt Q12851); conditions: compound 0.1 µM
BTK (human) = BTK (human) (UniProt Q06187)
RIPK2 (human) = RIPK2 (human) (UniProt O43353)
MAPKAPK3 (human) = MAPKAPK3 (human) (UniProt Q16644)
CHEK1 (human) = CHEK1 (human) (UniProt O14757)
RPS6KA3 KD1 KD2 (human) = RPS6KA3 KD1 KD2 (human) (UniProt P51812)
PRKACA (human) = PRKACA (human) (UniProt P17612)
MELK (human) = MELK (human) (UniProt Q14680)
MINK1 (human) = MINK1 (human) (UniProt Q8N4C8)
MAP2K2 (human) = MAP2K2 (human) (UniProt P36507)
FGFR1 (human) = FGFR1 (human) (UniProt P11362)
AURKB (human) = AURKB (human) (UniProt Q96GD4)
BRSK1 (human) = BRSK1 (human) (UniProt Q8TDC3)
[1] = system: SGK1 (human), O00141 [S422D]
MAPK12 (human) = MAPK12 (human) (UniProt P53778)
MAPK15 (human) = MAPK15 (human) (UniProt Q8TD08)
ERBB4 (human) = ERBB4 (human) (UniProt Q15303)
PIM2 (human) = PIM2 (human) (UniProt Q9P1W9)
MST4 (human) = MST4 (human) (UniProt Q9P289)
CSNK2A1 (human) = CSNK2A1 (human) (UniProt P68400)
PRKCA (human) = PRKCA (human) (UniProt P17252)
MAPK10 (human) = MAPK10 (human) (UniProt P53779)
SRPK1 (human) = SRPK1 (human) (UniProt Q96SB4)
DYRK2 (human) = DYRK2 (human) (UniProt Q92630)
INSRR (human) = INSRR (human) (UniProt P14616)
MAP2K6 (human) = MAP2K6 (human) (UniProt P52564)
PHKG1 (human) = PHKG1 (human) (UniProt Q16816)
FLT1 (human) = FLT1 (human) (UniProt P17948)
EEF2K (human) = EEF2K (human) (UniProt O00418)
EPHA2 (human) = EPHA2 (human) (UniProt P29317); conditions: compound 0.1 µM
MAPKAPK5 (human) = MAPKAPK5 (human) (UniProt Q8IW41)
CDK2 CCNA2 (human) = CDK2 CCNA2 (human) (UniProt P20248+P24941)
[2] = system: PAK2 (human), Q13177 [T402E]
PIM3 (human) = PIM3 (human) (UniProt Q86V86)

Chain of DYRK2 (human) (Q92630 whole entry, looked up): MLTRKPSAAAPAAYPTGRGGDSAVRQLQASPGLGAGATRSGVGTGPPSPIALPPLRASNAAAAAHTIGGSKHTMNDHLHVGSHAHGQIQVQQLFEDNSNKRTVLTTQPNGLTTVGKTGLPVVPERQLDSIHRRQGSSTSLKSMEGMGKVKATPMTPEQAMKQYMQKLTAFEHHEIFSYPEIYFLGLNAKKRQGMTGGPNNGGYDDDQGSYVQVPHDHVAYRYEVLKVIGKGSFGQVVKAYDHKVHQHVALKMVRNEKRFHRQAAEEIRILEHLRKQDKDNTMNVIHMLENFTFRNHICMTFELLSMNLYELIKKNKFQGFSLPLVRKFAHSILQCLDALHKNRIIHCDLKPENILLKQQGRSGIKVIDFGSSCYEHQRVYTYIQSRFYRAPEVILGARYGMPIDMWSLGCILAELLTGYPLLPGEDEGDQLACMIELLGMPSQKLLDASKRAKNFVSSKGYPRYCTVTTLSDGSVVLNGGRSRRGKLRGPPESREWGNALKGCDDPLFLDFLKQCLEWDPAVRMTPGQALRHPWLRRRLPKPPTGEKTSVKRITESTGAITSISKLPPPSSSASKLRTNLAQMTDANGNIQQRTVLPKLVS
Chain of SGK1 (human), O00141 [S422D] (O00141 whole entry S422D, looked up): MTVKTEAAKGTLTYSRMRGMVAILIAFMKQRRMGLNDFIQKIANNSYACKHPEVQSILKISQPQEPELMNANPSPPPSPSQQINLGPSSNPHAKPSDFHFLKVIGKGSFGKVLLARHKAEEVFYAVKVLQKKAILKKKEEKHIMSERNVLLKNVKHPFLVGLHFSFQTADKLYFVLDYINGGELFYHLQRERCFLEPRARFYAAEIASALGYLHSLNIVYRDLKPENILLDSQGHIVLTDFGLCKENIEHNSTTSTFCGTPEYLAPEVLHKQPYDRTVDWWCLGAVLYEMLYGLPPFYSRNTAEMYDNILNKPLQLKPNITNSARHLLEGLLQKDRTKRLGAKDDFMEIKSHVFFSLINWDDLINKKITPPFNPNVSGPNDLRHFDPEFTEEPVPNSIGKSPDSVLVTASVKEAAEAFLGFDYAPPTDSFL
Chain of CHEK1 (human) (O14757 whole entry, looked up): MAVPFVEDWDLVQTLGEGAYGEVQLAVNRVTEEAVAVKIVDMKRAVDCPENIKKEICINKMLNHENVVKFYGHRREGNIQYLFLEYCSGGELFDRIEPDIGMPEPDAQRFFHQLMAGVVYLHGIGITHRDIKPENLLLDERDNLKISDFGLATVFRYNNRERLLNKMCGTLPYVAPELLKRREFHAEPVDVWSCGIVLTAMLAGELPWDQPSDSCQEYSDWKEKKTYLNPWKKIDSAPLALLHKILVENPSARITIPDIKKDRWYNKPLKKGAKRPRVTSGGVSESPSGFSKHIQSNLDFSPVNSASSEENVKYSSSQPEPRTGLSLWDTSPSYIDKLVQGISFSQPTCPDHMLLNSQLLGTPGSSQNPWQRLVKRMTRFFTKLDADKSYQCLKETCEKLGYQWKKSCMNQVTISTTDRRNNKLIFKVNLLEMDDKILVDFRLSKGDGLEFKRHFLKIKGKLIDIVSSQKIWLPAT
Chain of RIPK2 (human) (O43353 whole entry, looked up): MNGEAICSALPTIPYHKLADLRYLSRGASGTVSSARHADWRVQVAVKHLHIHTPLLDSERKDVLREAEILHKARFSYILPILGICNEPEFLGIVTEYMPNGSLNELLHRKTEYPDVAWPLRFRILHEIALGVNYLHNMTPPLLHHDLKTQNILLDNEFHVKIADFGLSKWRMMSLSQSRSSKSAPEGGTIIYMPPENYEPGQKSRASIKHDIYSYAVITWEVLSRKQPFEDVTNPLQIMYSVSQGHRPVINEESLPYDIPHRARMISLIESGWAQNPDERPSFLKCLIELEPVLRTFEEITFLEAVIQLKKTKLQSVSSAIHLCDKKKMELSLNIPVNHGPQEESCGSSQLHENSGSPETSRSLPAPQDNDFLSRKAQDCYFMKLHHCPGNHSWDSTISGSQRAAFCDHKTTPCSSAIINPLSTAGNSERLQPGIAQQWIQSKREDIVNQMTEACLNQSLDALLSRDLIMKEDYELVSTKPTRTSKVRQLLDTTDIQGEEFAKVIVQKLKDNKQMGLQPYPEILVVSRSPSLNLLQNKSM
Chain of RPS6KA3 KD1 KD2 (human) (P51812 whole entry, looked up): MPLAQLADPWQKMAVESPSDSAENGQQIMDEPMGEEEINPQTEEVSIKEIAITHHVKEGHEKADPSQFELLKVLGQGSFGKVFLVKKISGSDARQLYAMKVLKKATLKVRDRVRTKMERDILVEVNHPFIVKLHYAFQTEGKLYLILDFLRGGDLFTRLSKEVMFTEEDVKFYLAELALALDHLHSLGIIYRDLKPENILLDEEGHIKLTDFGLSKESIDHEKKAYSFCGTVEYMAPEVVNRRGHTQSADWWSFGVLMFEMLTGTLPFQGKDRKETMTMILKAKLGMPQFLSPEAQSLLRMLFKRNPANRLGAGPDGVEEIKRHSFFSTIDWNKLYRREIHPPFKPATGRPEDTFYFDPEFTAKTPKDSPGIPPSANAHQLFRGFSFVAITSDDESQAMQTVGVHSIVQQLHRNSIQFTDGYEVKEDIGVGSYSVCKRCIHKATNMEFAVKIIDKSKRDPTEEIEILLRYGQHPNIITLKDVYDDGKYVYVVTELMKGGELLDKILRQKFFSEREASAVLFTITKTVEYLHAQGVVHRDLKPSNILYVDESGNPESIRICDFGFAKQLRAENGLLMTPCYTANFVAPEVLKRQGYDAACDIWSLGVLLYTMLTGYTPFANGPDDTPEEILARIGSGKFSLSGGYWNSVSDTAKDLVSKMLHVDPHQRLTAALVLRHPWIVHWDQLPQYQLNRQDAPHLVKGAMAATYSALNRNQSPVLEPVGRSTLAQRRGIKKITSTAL
Chain of MAPK15 (human) (Q8TD08 whole entry, looked up): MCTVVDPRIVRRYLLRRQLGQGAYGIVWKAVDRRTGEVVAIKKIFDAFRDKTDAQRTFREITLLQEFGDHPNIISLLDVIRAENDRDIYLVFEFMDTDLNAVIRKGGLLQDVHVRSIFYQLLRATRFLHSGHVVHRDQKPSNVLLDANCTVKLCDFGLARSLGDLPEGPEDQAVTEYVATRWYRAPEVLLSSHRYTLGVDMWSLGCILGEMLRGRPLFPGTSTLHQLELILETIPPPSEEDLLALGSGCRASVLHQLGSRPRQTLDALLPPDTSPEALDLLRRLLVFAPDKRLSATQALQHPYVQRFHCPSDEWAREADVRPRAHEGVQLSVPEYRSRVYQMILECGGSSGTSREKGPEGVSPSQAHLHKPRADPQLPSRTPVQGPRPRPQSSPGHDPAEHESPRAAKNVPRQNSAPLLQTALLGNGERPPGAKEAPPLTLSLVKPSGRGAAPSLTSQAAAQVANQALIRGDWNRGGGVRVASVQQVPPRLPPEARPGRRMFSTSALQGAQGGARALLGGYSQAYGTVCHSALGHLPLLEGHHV
Chain of MAPKAPK5 (human) (Q8IW41 whole entry, looked up): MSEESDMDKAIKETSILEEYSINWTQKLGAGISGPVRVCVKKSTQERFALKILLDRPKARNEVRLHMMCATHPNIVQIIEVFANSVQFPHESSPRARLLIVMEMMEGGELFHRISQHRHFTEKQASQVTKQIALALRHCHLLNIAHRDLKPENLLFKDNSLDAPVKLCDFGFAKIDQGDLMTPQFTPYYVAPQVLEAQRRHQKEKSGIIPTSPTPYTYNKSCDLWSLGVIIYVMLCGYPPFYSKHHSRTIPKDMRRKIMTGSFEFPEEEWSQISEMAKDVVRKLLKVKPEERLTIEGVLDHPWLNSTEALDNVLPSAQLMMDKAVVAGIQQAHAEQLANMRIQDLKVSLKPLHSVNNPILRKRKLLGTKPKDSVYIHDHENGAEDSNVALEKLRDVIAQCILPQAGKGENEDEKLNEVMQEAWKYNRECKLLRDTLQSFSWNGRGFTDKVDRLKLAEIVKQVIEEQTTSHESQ
Chain of AURKA (human) (O14965 whole entry, looked up): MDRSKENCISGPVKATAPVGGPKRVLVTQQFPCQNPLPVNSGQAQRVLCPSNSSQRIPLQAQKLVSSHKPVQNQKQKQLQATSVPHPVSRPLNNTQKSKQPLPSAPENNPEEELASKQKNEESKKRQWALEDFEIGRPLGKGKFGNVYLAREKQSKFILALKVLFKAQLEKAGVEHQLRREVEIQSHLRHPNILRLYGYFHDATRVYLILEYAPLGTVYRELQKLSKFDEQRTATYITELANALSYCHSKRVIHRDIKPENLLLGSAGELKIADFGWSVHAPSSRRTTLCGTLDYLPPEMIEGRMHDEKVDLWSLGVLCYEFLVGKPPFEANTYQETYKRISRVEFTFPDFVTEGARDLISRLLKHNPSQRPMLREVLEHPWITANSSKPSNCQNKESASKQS
Chain of MELK (human) (Q14680 whole entry, looked up): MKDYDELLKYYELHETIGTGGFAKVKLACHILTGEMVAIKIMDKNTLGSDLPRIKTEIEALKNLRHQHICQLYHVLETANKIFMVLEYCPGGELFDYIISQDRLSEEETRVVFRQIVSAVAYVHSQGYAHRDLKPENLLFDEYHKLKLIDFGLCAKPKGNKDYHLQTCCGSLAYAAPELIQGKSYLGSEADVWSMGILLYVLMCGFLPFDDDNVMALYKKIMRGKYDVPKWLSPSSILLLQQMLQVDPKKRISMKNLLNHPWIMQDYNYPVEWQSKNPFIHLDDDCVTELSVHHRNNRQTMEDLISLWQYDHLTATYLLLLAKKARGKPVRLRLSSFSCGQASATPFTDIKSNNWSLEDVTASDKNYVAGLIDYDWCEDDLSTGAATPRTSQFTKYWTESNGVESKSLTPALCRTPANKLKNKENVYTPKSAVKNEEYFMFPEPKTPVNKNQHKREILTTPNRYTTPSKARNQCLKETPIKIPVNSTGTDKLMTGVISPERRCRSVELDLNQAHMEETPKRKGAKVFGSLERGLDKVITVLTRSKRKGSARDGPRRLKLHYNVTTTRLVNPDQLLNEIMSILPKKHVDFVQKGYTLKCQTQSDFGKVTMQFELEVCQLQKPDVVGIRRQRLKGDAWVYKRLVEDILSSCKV

residual activity (TAOK1 (human); compound 0.1 µM): 95%
residual activity (TAOK1 (human); compound 1.0 µM): 74%
residual activity (AURKA (human); compound 0.1 µM): 18%
residual activity (AURKA (human); compound 1.0 µM): 3%
residual activity (GCK (human)): 29%
residual activity (BTK (human); compound 0.1 µM): 22%
residual activity (BTK (human); compound 1.0 µM): 14%
residual activity (RIPK2 (human); compound 0.1 µM): 28%
residual activity (RIPK2 (human); compound 1.0 µM): 14%
residual activity (MAPKAPK3 (human); compound 0.1 µM): 97%
residual activity (MAPKAPK3 (human); compound 1.0 µM): 81%
residual activity (CHEK1 (human); compound 0.1 µM): 72%
residual activity (CHEK1 (human); compound 1.0 µM): 20%
residual activity (RPS6KA3 KD1 KD2 (human); compound 0.1 µM): 38%
residual activity (RPS6KA3 KD1 KD2 (human); compound 1.0 µM): 9%
residual activity (PRKACA (human); compound 0.1 µM): 78%
residual activity (PRKACA (human); compound 1.0 µM): 26%
residual activity (MELK (human); compound 0.1 µM): 37%
residual activity (MELK (human); compound 1.0 µM): 27%
residual activity (MINK1 (human); compound 0.1 µM): 104%
residual activity (MINK1 (human); compound 1.0 µM): 57%
residual activity (MAP2K2 (human); compound 0.1 µM): 55%
residual activity (MAP2K2 (human); compound 1.0 µM): 28%
residual activity (FGFR1 (human); compound 0.1 µM): 20%
residual activity (FGFR1 (human); compound 1.0 µM): 8%
residual activity (AURKB (human); compound 0.1 µM): 36%
residual activity (AURKB (human); compound 1.0 µM): 11%
residual activity (BRSK1 (human); compound 0.1 µM): 74%
residual activity (BRSK1 (human); compound 1.0 µM): 17%
residual activity ([1]; compound 0.1 µM): 107%
residual activity ([1]; compound 1.0 µM): 61%
residual activity (MAPK12 (human); compound 0.1 µM): 113%
residual activity (MAPK12 (human); compound 1.0 µM): 95%
residual activity (ERBB4 (human); compound 0.1 µM): 60%
residual activity (ERBB4 (human); compound 1.0 µM): 17%
residual activity (PIM2 (human); compound 0.1 µM): 108%
residual activity (PIM2 (human); compound 1.0 µM): 106%
residual activity (MST4 (human); compound 0.1 µM): 90%
residual activity (MST4 (human); compound 1.0 µM): 67%
residual activity (CSNK2A1 (human); compound 0.1 µM): 33%
residual activity (CSNK2A1 (human); compound 1.0 µM): 6%
residual activity (PRKCA (human); compound 0.1 µM): 95%
residual activity (PRKCA (human); compound 1.0 µM): 56%
residual activity (MAPK10 (human); compound 0.1 µM): 65%
residual activity (MAPK10 (human); compound 1.0 µM): 39%
residual activity (SRPK1 (human); compound 0.1 µM): 104%
residual activity (SRPK1 (human); compound 1.0 µM): 87%
residual activity (DYRK2 (human); compound 0.1 µM): 50%
residual activity (DYRK2 (human); compound 1.0 µM): 16%
residual activity (INSRR (human); compound 0.1 µM): 78%
residual activity (INSRR (human); compound 1.0 µM): 35%
residual activity (MAP2K6 (human); compound 0.1 µM): 99%
residual activity (MAP2K6 (human); compound 1.0 µM): 75%
residual activity (PHKG1 (human); compound 0.1 µM): 56%
residual activity (PHKG1 (human); compound 1.0 µM): 12%
residual activity (FLT1 (human); compound 0.1 µM): 5%
residual activity (FLT1 (human); compound 1.0 µM): 2%
residual activity (EEF2K (human); compound 0.1 µM): 100%
residual activity (EEF2K (human); compound 1.0 µM): 91%
residual activity (EPHA2 (human)): 28%
residual activity (MAPKAPK5 (human); compound 0.1 µM): 98%
residual activity (MAPKAPK5 (human); compound 1.0 µM): 85%
residual activity (CDK2 CCNA2 (human); compound 0.1 µM): 34%
residual activity (CDK2 CCNA2 (human); compound 1.0 µM): 7%
residual activity ([2]; compound 0.1 µM): 50%
residual activity ([2]; compound 1.0 µM): 14%
residual activity (PIM3 (human); compound 0.1 µM): 91%
residual activity (PIM3 (human); compound 1.0 µM): 63%
SMILES: COc1ccc(-n2ncc3cnc(Nc4cc(OC)c(OC)c(OCCCN5CCN(C)CC5)c4)nc32)cc1
residual activity (MAPK15 (human); compound 0.1 µM): 22%
residual activity (MAPK15 (human); compound 1.0 µM): 4%

From the kinase profiling compilation of Christmann-Franck et al. (2016)
